Where two headings read alike, the source gives them in different places.

This passage reports IC50 results from patent publication US6046217A, “2,3,5-trisubstituted pyridines as inhibitors of cyclooxygenase-2” (Merck Frosst Canada & Co., priority 1998, dated 2000).

Assay [1] deals with T1, COX-1 (Homo sapiens, UniProt P23219). The assay is described as follows: Human whole blood assay, COX-1 (clotting-induced TxB2 production). The class given is cell-based. The arrangement: platelets in whole blood contain a large amount of the COX-1 enzyme; endogenous in cells; host or cells: platelets in fresh human whole blood, clotting. The note with it: human whole blood, clotting-induced TxB2, 1 h; read-out: COX-1 (IC50 mM) HWB. The text has this: (§1) As well, platelets in whole blood contain a large amount of the COX-1 enzyme. Immediately following blood clotting, platelets are activated through a thrombin-mediated mechanism. This reaction results in the production of thromboxane B2 (TxB2) via activation of COX-1. Thus, the effect of test compounds on TxB2 levels following blood clotting can be examined and used as an index for COX-1 activity. Therefore, the degree of selectivity by the test compound can be determined by measuring the levels of PGE2 after LPS induction (COX-2) and TxB2 following blood clotting (COX-1) in the same assay.
T1 sequence (P23219 24-599): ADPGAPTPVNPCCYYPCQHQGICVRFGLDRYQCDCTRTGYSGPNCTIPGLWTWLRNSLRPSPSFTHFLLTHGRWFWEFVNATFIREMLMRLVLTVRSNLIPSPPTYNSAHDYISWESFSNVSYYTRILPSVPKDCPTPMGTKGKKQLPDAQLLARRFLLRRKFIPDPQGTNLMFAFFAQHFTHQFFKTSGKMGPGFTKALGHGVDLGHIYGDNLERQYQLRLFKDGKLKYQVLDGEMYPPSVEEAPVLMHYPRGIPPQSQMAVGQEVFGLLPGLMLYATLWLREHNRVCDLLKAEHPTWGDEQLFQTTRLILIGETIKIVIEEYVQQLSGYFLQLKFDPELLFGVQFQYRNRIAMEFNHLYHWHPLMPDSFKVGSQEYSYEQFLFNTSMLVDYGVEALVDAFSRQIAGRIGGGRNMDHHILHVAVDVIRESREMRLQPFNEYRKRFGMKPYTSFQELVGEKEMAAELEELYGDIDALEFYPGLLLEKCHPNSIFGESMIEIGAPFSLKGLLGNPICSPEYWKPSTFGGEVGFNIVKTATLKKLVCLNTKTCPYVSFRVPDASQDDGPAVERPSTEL
Fresh blood is collected into vacutainers containing no anticoagulants. […] The tubes are vortexed and incubated at 37° C. for 1 hour to allow blood to clot. At the end of incubation, serum is obtained by centrifugation (12,000×g for 5 min.). A 100 μL aliquot of serum is mixed with 400 μL of methanol for protein precipitation.

For assay [2], the target named is T1, COX-1. Description: Assay of COX-1 activity from U937 cell microsomes (PGE2). The note with it: U-937 cell microsomes, 15 min preincubation; read-out: COX-1 (IC50 mM) U-937. The arrangement: Assay of COX-1 Activity from U937 Cell Microsomes; endogenous in cells; host or cells: U937 cells, 100,000 x g microsomal pellet. The class given is biochemical. How it is done: U 937 cells are pelleted by centrifugation at 500×g for 5 min and washed once with phosphate-buffered saline and repelleted. Cells are resuspended in homogenization buffer consisting of 0.1 M Tris-HCl, pH 7.4, 10 mM EDTA, […] leupeptin, 2 μg/ml soybean trypsin inhibitor, 2 μg/ml aprotinin and 1 mM phenyl methyl sulfonyl fluoride. The cell suspension is sonicated 4 times for 10 sec and is centrifuged at 10,000×g for 10 min at 4° C. The supernatant is centrifuged at 100,000×g for 1 hr at 4° C. The 100,000×g microsomal pellet is resuspended in 0.1 M Tris-HCl, pH 7.4, 10 mM EDTA to approximately 7 mg protein/ml and stored at -80° C.
Microsomal preparations are thawed immediately prior to use, subjected to a brief sonication, and then diluted to a protein concentration of 125 μg/ml in 0.1 M Tris-HCl buffer, pH 7.4 containing 10 mM EDTA, 0.5 mM phenol, 1 mM reduced glutathione and 1 μM hematin. Assays are performed in duplicate in a final volume of 250 μl. Initially, 5 μl of DMSO vehicle or drug in DMSO are added to 20 μl of 0.1 M Tris-HCl buffer, pH 7.4 containing 10 mM EDTA in wells of a 96-deepwell polypropylene titre plate. 200 μl of the microsomal preparation are then added and pre-incubated for 15 min at room temperature before addition of 25 μl of […] arachidonic acid in […] Tris-HCl and 10 mM EDTA, pH 7.4. Samples are incubated for 40 min at room temperature and the reaction is stopped by the addition of 25 μl of 1 N HCl. Samples are neutralized with 25 μl of 1 N NaOH prior to quantitation of PGE2 content by radioimmunoassay (Dupont-NEN or Amersham assay kits). Cyclooxygenase activity is defined as the difference between PGE2 levels in samples incubated in the presence of arachidonic acid and ethanol vehicle.
In the assay, inhibition is determined by measuring the amount of prostaglandin E2 (PGE2) synthesized in the presence of arachidonic acid, cyclooxygenase-1 or cyclooxygenase-2 and a putative inhibitor.

In assay [3] the target is T2, COX-2 (Homo sapiens, UniProt P35354).
T2 sequence (P35354 18-604): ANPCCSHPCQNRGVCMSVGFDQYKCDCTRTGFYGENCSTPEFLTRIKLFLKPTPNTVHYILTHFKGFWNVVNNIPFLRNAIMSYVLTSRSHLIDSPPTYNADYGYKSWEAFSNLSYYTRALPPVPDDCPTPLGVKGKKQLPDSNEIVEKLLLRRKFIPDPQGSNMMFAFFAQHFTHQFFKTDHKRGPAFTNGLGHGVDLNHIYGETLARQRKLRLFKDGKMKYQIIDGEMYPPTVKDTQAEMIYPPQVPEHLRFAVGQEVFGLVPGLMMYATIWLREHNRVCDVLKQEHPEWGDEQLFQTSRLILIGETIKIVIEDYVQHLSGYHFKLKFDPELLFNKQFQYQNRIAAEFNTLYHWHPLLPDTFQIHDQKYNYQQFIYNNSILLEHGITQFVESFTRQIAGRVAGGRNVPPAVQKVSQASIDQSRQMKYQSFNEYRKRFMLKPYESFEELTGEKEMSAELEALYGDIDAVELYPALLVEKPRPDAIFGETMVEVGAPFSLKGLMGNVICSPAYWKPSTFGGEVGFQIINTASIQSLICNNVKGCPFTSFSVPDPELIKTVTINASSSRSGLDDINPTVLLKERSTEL
Description: cell-based. The note with it: human whole blood, LPS-induced PGE2, 24 h.
Source text: as §1
Fresh blood is collected in heparinized tubes by venipuncture from both male and female volunteers. The subjects have no apparent inflammatory conditions and have not taken any NSAIDs for at least 7 days prior to blood collection. Plasma is immediately obtained from a 2mL blood aliquot to use as blank (basal levels of PGE2). The remaining blood is incubated with LPS (100 μg/ml final concentration, Sigma Chem, #L-2630 from E. coli; diluted in 0.1% BSA (Phosphate buffered saline) for 5 minutes at room temperature. Five hundred […] aliquots of blood are incubated with either 2 μL of vehicle (DMSO) or 2 μL of a test compound at final concentrations varying from 10 nM to 30 μM for 24 hours at 37° C. At the end of the incubation, the blood is centrifuged at 12,000×g for 5 minutes to obtain plasma. A 100 μL aliquot of plasma is mixed with 400 μL of methanol for protein precipitation. The supernatant is obtained and is assayed for PGE2 using a radioimmunoassay kit (Amersham, RPA#530) after conversion of PGE2 to its methyl oximate derivative according to the manufacturer's procedure. […]

Assay [4] addresses T2, COX-2. Description: cell-based.
Description: For cyclooxygenase assays, CHO[hCOX-1] cells from suspension cultures and CHO[hCOX-2] cells prepared by trypsinization of adherent cultures are harvested by centrifugation (300×g, 10 min) and washed once in HBSS containing 15 mM HEPES, pH 7.4, and resuspended in HBSS, 15 mM HEPES, pH 7.4, at a cell concentration of 1.5×10^6 cells/ml. Drugs to be tested are dissolved in DMSO to 66.7-fold the highest test drug concentration. […] Cells (0.3×10^6 cells in 200 μl) are preincubated with 3 μl of the test drug or DMSO vehicle for 15 min at 37° C. Working solutions of peroxide-free AA (5.5 μM and 110 μM AA for the CHO [hCOX-1] and CHO [COX-2] assays, respectively) are prepared by a 10-fold dilution of a concentrated AA solution in ethanol into HBSS containing 15 mM HEPES, pH 7.4. Cells are then challenged in the presence or absence of drug with the AA/HBSS solution to yield a final concentration of 0.5 μM AA in the CHO[hCOX-1] assay and a final concentration of 10 μM AA in the CHO[hCOX-2] assay. The reaction is terminated by the addition of 10 μl 1 N HCl followed by neutralization with 20 μl of 0.5 N NaOH. The samples are centrifuged at 300 ×g at 4° C. for 10 min, and an aliquot of the clarified supernatant is appropriately diluted for the determination of PGE2 levels using an enzyme-linked immunoassay for PGE2 (Correlate PGE2 enzyme immunoassay kit, Assay Designs, Inc.). Cyclooxygenase activity in the absence of test compounds is determined as the difference in PGE2 levels of cells challenged with arachidonic acid versus the PGE2 levels in cells mock-challenged with ethanol vehicle. Inhibition of PGE2 synthesis by test compounds is calculated as a percentage of the activity in the presence of drug versus the activity in the positive control samples.
The mark [5] stands for this setting: CHO[hCOX-2] cells, 10 μM AA, 15 min preincubation, read-out: COX-2 (IC50 mM) CHO.

A word on the IC50: it is the concentration that gives 50% inhibition. `C[C@]1(O)CCC[C@H]1Oc1ncc(C(F)(F)F)cc1-c1ccc(S(C)(=O)=O)cc1` (single isomer, unassigned) [Example 31, (+)-2-(cis-2-Hydroxy-2-methylcyclopentyloxy)-3-(4-methylsulfonyl)phenyl-5-trifluoromethylpyridine]: the IC50 at COX-1 [1] was more than 0.1 mM; at COX-1 [2], 0.037 mM.
As to `C[C@H](Oc1ncc(C(F)(F)F)cc1-c1ccc(S(C)(=O)=O)cc1)C(C)(C)O` [Example 16, 2-((2S)-3-Hydroxy-3-methyl-2-butyloxy)-3-(4-methylsulfonyl)phenyl-5-trifluoromethylpyridine], the figures for the IC50 at COX-2 [3] (read-out: COX-2 (IC50 mM) HWB), at COX-1 [2] and on COX-2 [4] (setting [5]) were 0.0006 mM, more than 0.01 mM and 430 nM, respectively.
Take `C[C@@H](Oc1ncc(Cl)cc1-c1ccc(S(C)(=O)=O)cc1)C(C)(C)O` [Example 18, 5-Chloro-2-((2R)-3-Hydroxy-3-methyl-2-butyloxy)-3-(4-methylsulfonyl)phenylpyridine]: the IC50 on COX-2 [3] (read-out: COX-2 (IC50 mM) HWB) was 0.0004 mM; on COX-1 [2], more than 0.01 mM; at COX-2 [4] (setting [5]), 80 nM.
In the case of `CCC(Oc1ncc(C(F)(F)F)cc1-c1ccc(S(C)(=O)=O)cc1)C(C)(C)O` (centres unmarked) [Example 19, 2-(4-Hydroxy-4-methyl-3-pentyloxy)-3-(4-methylsulfonyl)phenyl-5-trifluoromethylpyridine], the results for the IC50 on COX-2 [3] (read-out: COX-2 (IC50 mM) HWB), at COX-1 [2] and on COX-2 [4] (setting [5]) were 0.0005 mM, more than 0.01 mM and 320 nM, respectively.
The corresponding values for `CCC(O)(CC)[C@H](C)Oc1ncc(C(F)(F)F)cc1-c1ccc(S(C)(=O)=O)cc1` [Example 20, 2-((2S)-3-Ethyl-3-hydroxy-2-pentyloxy)-3-(4-methylsulfonyl)phenyl-5-trifluoromethylpyridine] are 0.0016 mM, more than 0.01 mM and 400 nM.
The corresponding values for `C[C@@H](O)[C@@H](C)Oc1ncc(Cl)cc1-c1ccc(S(C)(=O)=O)cc1` [Example 24, 5-Chloro-2-((2R,3R)-3-hydroxy-2-butyloxy)-3-(4-methylsulfonyl)phenylpyridine] are 0.0015 mM, more than 0.01 mM and 70 nM.
In the case of `C[C@H](O)[C@@H](C)Oc1ncc(C(F)(F)F)cc1-c1ccc(S(C)(=O)=O)cc1` [Example 25, 2-((2R,3S)-3-Hydroxy-2-butyloxy)-3-(4-methylsulfonyl)phenyl-5-trifluoromethylpyridine], the 50% inhibitory concentration (IC50) was 0.0036 mM on COX-2 [3] (read-out: COX-2 (IC50 mM) HWB), more than 0.01 mM on COX-1 [2] and 60 nM at COX-2 [4] (setting [5]).
For `C[C@H](O)CCOc1ncc(C(F)(F)F)cc1-c1ccc(S(C)(=O)=O)cc1` [Example 38, 2-((3S)-3-Hydroxy-1-butyloxy)-3-(4-methylsulfonyl)phenyl-5-trifluoromethylpyridine], the IC50 on COX-2 [3] (read-out: COX-2 (IC50 mM) HWB) was 0.0059 mM; on COX-1 [2], 0.003 to 0.01 mM; at COX-2 [4] (setting [5]), 260 nM.
As to `C[C@@H](O)CCOc1ncc(C(F)(F)F)cc1-c1ccc(S(C)(=O)=O)cc1` [Example 39, 2-((3R)-3-Hydroxy-1-butyloxy)-3-(4-methylsulfonyl)phenyl-5-trifluoromethylpyridine], the IC50 was 0.0134 mM at COX-2 [3] (read-out: COX-2 (IC50 mM) HWB), more than 0.01 mM on COX-1 [2] and 200 nM on COX-2 [4] (setting [5]).
Consider `CC(C)(O)CCOc1ncc(C(F)(F)F)cc1-c1ccc(S(C)(=O)=O)cc1` [Example 40, 2-(3-Hydroxy-3-methyl-1-butyloxy)-3-(4-methylsulfonyl)phenyl-5-trifluoromethylpyridine], for which the IC50 on COX-2 [3] (read-out: COX-2 (IC50 mM) HWB) amounted to 0.0039 mM; at COX-1 [2] it was 0.01 mM; at COX-2 [4] (setting [5]), 200 nM.
With `C[C@H](CCO)Oc1ncc(C(F)(F)F)cc1-c1ccc(S(C)(=O)=O)cc1` [Example 41, 2-((2R)-4-Hydroxy-2-butyloxy)-3-(4-methylsulfonyl)phenyl-5-trifluoromethylpyridine], the results for the IC50 at COX-2 [3] (read-out: COX-2 (IC50 mM) HWB), on COX-1 [2] and at COX-2 [4] (setting [5]) were 0.0004 mM, more than 0.01 mM and 40 nM, respectively.
In the case of `CC(C)(O)CSc1ncc(Cl)cc1-c1ccc(S(C)(=O)=O)cc1` [Example 44, 5-Chloro-2-(2-Hydroxy-2-methyl-1-thiopropyloxy)-3-(4-methylsulfonyl)phenylpyridine], the values for the IC50 on COX-2 [3] (read-out: COX-2 (IC50 mM) HWB), at COX-1 [2] and at COX-2 [4] (setting [5]) were 0.0015 mM, more than 0.01 mM and 40 nM, respectively.
Take `CCC(O)(CC)CSc1ncc(C(F)(F)F)cc1-c1ccc(S(C)(=O)=O)cc1` [Example 47, 2-(2-Ethyl-2-hydroxy-1-thiobutyloxy)-3-(4-methylsulfonyl)phenyl-5-trifluoromethylpyridine]: the IC50 is 0.0006 mM on COX-2 [3] (read-out: COX-2 (IC50 mM) HWB), 0.003 to 0.01 mM on COX-1 [2] and 20 nM on COX-2 [4] (setting [5]).
Regarding `CCC(O)(CC)CSc1ncc(Cl)cc1-c1ccc(S(C)(=O)=O)cc1` [Example 48, 5-Chloro-2-(2-ethyl-2-hydroxy-1-thiobutyloxy)-3-(4-methylsulfonyl)phenylpyridine], the IC50 is 0.0011 mM on COX-2 [3] (read-out: COX-2 (IC50 mM) HWB), 0.001 to 0.003 mM on COX-1 [2] and 70 nM on COX-2 [4] (setting [5]).
As for `CS(=O)(=O)c1ccc(-c2cc(C(F)(F)F)cnc2SCC2(O)CCCC2)cc1` [Example 49, 2-(1-Hydroxycyclopentyl)thiomethoxy-3-(4-methylsulfonyl)phenyl-5-trifluoromethylpyridine], the IC50 came out at 0.0012 mM on COX-2 [3] (read-out: COX-2 (IC50 mM) HWB), 0.0003 mM on COX-1 [2] and 160 nM on COX-2 [4] (setting [5]).
Consider `CC(CO)Sc1ncc(C(F)(F)F)cc1-c1ccc(S(C)(=O)=O)cc1` (centres unmarked) [Example 50, 2-(3-Hydroxy-2-thiopropyloxy)-3-(4-methylsulfonyl)phenyl-5-trifluoromethylpyridine], for which the IC50 at COX-2 [3] (COX-2 (IC50 mM) HWB) is 0.0005 mM; at COX-1 [2], 0.001 to 0.003 mM; against COX-2 [4], 50 nM.
